From patent publication US6461644B1, “Anesthetizing plastics, drug delivery plastics, and related medical products, systems and methods” (priority 1996, dated 2002)

What was measured:
skin = test: Demonstrations of anesthetizing plastic, tapes and adhesive films on skin; assay type: in vivo, human; conditions: employed instead of lidocaine
Source text: […]. For instance, lidocaine added to polyvinyl chloride is all that is needed to create a soft, stretchy, elastic vinyl milled film or sheet. Like the common vinyl plasticizer di-isooctyl phthalate, lidocaine base slowly migrates to the surface of the formed object, to serve as a sustained source of anesthetic to tissue contacted by the device. The rate of drug delivery is governed by the selected concentration of the drug, the selected plastic resin and the acceptance rate of the part of the body with which the anesthetizing plastic is in contact. […]. A piece of such milled vinyl anesthetic material has remained taped to skin for 10 days without any diminution of anesthetizing effect or apparent loss of plasticization.
. […]. However, when this adhesive-topical anesthetic mixture is applied to polyethylene film as a carrier and is pressed with a warm hand to human skin, sufficient tackiness is observed that the film clings to the applied areas effectively, but can be readily removed. The tacky product is suitably dispensed with the tacky layer protected by contact with silicone coated release paper.
With such devices, in 1-3 hours topical anesthesia of the skin is established, which will last for 2-3 days if the film patch is left in place. Washing the skin e.g. with lauramide surfactant prior to applying the film decreases the onset time for skin anesthesia. […]

[1] = Method: In one case, in the course of manufacture, propafenone is dissolved in orally administratable solid granules such as coarse or fine powder of non-biodegradable thermoplastic resin. […] In another embodiment, the resin is formed on or as an implant to release the drug directly to heart tissue or the blood stream, or as a transdermal patch or as a drug-applying ear or nose plug.

SMILES	duration of anesthesia following removal compared with lidocaine (skin)	amount held by PVC ([1]; PVC)	amount in solution in PVC that can be employed ([1]; PVC) [% by weight]	amount held by CPE ([1]; chlorinated polyethylene, by milling)	amount held by EP ([1]; ethylene propylene, by milling)
CCCCOc1cc(C(=O)NCCN(CC)CC)c2ccccc2n1 [dibucaine]	substantially longer				
CCN(CC)CC(=O)Nc1c(C)cccc1C [lidocaine base]		about 50%	≥ 50	about 25%	about 25%
CCCCNc1ccc(C(=O)OCCN(C)C)cc1 [tetracaine]	substantially longer				
